{
  "source": "ChEMBL document CHEMBL1147032",
  "about": "“Design, synthesis, and biological evaluation of substituted 2-alkylthio-1,5-diarylimidazoles as selective COX-2 inhibitors” (Bioorg Med Chem, 2007)",
  "key": {"[1]": {"target": "T1, Prostaglandin G/H synthase 2 (Mus musculus, UniProt Q05769)", "T1 sequence (Q05769 whole entry)": "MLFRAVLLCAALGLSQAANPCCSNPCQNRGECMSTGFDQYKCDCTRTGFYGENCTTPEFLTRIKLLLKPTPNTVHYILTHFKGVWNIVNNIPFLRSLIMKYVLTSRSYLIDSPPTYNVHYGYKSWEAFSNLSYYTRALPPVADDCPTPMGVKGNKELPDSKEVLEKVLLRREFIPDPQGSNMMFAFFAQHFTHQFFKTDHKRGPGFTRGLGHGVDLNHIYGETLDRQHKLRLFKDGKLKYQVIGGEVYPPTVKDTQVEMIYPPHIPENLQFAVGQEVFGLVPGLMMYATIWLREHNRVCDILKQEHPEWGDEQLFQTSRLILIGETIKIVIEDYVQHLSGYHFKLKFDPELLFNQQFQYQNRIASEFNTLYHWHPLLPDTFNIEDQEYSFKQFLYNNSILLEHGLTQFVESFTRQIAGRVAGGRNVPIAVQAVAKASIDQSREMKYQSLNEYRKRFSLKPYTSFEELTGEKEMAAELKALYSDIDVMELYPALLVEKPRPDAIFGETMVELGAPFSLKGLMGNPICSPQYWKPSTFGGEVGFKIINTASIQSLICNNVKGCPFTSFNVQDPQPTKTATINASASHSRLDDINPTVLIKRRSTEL", "assay": "Inhibition of mouse COX2"}, "[2]": {"target": "T2, Prostaglandin G/H synthase 1 (Ovis aries, UniProt P05979)", "T2 sequence (P05979 whole entry)": "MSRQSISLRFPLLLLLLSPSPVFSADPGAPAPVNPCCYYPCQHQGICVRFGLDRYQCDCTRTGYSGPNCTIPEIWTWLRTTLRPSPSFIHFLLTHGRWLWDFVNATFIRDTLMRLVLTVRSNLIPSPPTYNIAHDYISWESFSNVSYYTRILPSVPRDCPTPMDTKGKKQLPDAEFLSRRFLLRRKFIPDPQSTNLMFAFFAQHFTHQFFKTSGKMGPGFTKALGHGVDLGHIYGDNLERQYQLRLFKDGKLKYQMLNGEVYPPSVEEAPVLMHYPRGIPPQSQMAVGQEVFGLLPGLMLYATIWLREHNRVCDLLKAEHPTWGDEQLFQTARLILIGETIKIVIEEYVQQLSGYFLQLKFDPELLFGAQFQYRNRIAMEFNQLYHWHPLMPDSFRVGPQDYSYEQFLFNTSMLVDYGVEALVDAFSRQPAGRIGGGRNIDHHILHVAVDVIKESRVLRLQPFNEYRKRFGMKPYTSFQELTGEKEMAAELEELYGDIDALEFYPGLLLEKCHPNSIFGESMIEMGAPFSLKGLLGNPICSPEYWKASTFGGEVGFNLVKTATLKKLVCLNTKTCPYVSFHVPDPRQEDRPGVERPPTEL", "assay": "Inhibition of ovine COX1"}, "[3]": {"system": "Rattus norvegicus", "assay": "Antiinflammatory activity against carrageenan-induced paw edema in Sprague-Dawley rat at 50 mg/kg, po after 3 hrs", "assay_type": "functional"}, "[4]": {"system": "Rattus norvegicus", "assay": "Antiinflammatory activity against carrageenan-induced paw edema in Sprague-Dawley rat at 50 mg/kg, po after 5 hrs", "assay_type": "functional"}, "[5]": {"assay": "Inhibition of ovine COX1 at 0.5 uM"}, "[6]": {"assay": "Inhibition of ovine COX1 at 25 uM"}},
  "data": [
    {"smiles": "CCSc1ncc(-c2ccc(S(C)(=O)=O)cc2)n1-c1ccc(Cl)cc1", "values": [
      {"measurement": "IC50", "setting": "[1]", "result": "> 25000", "unit": "nM"},
      {"measurement": "IC50", "setting": "[2]", "result": 820, "unit": "nM"},
      {"measurement": "inhibition in vivo at 50 mg/kg", "setting": "[3]", "result": 53.8, "unit": "%"},
      {"measurement": "inhibition in vivo at 50 mg/kg", "setting": "[4]", "result": 52.7, "unit": "%"}
    ]},
    {"smiles": "COc1ccc(-n2c(-c3ccc(S(C)(=O)=O)cc3)cnc2SC)cc1", "values": [
      {"measurement": "IC50", "setting": "[1]", "result": "> 25000", "unit": "nM"},
      {"measurement": "IC50", "setting": "[2]", "result": 2610, "unit": "nM"},
      {"measurement": "inhibition in vivo at 50 mg/kg", "setting": "[3]", "result": 41.3, "unit": "%"},
      {"measurement": "inhibition in vivo at 50 mg/kg", "setting": "[4]", "result": 34.3, "unit": "%"}
    ]},
    {"smiles": "CCSc1ncc(-c2ccc(S(C)(=O)=O)cc2)n1-c1ccc(OC)cc1", "values": [
      {"measurement": "IC50", "setting": "[1]", "result": "> 25000", "unit": "nM"},
      {"measurement": "IC50", "setting": "[2]", "result": 510, "unit": "nM"}
    ]},
    {"smiles": "CCSc1ncc(-c2ccc(S(C)(=O)=O)cc2)n1-c1ccc(Br)cc1", "values": [
      {"measurement": "IC50", "setting": "[1]", "result": "> 25000", "unit": "nM"},
      {"measurement": "IC50", "setting": "[2]", "result": "> 4000", "unit": "nM"},
      {"measurement": "inhibition in vivo at 50 mg/kg", "setting": "[3]", "result": 66, "unit": "%"},
      {"measurement": "inhibition in vivo at 50 mg/kg", "setting": "[4]", "result": 59, "unit": "%"}
    ]},
    {"smiles": "CSc1ncc(-c2ccc(S(C)(=O)=O)cc2)n1-c1ccc(F)cc1", "values": [
      {"measurement": "IC50", "setting": "[1]", "result": "> 25000", "unit": "nM"},
      {"measurement": "IC50", "setting": "[2]", "result": 520, "unit": "nM"},
      {"measurement": "inhibition in vivo at 50 mg/kg", "setting": "[3]", "result": 40, "unit": "%"},
      {"measurement": "inhibition in vivo at 50 mg/kg", "setting": "[4]", "result": 18.7, "unit": "%"}
    ]},
    {"smiles": "CSc1ncc(-c2ccc(S(C)(=O)=O)cc2)n1-c1ccc(Br)cc1", "values": [
      {"measurement": "IC50", "setting": "[1]", "result": "> 25000", "unit": "nM"},
      {"measurement": "IC50", "setting": "[2]", "result": 430, "unit": "nM"},
      {"measurement": "inhibition in vivo at 50 mg/kg", "setting": "[3]", "result": 90.7, "unit": "%"},
      {"measurement": "inhibition in vivo at 50 mg/kg", "setting": "[4]", "result": 88, "unit": "%"}
    ]},
    {"smiles": "CSc1ncc(-c2ccc(S(C)(=O)=O)cc2)n1-c1ccccc1", "values": [
      {"measurement": "IC50", "setting": "[1]", "result": "> 25000", "unit": "nM"},
      {"measurement": "IC50", "setting": "[2]", "result": 580, "unit": "nM"},
      {"measurement": "inhibition in vivo at 50 mg/kg", "setting": "[3]", "result": 74.1, "unit": "%"},
      {"measurement": "inhibition in vivo at 50 mg/kg", "setting": "[4]", "result": 61.6, "unit": "%"}
    ]},
    {"smiles": "CCSc1ncc(-c2ccc(S(C)(=O)=O)cc2)n1-c1ccccc1", "values": [
      {"measurement": "IC50", "setting": "[1]", "result": "> 25000", "unit": "nM"},
      {"measurement": "IC50", "setting": "[2]", "result": 580, "unit": "nM"},
      {"measurement": "inhibition in vivo at 50 mg/kg", "setting": "[3]", "result": 89.7, "unit": "%"},
      {"measurement": "inhibition in vivo at 50 mg/kg", "setting": "[4]", "result": 51.1, "unit": "%"}
    ]},
    {"smiles": "Cc1ccc(-c2cc(C(F)(F)F)nn2-c2ccc(S(N)(=O)=O)cc2)cc1", "note": "[CELECOXIB]", "values": [
      {"measurement": "inhibition in vivo at 50 mg/kg", "setting": "[3]", "result": 70.5, "unit": "%"},
      {"measurement": "inhibition in vivo at 50 mg/kg", "setting": "[4]", "result": 50, "unit": "%"}
    ]},
    {"smiles": "CCSc1ncc(-c2ccc(S(C)(=O)=O)cc2)n1-c1ccc(F)cc1", "values": [
      {"measurement": "IC50", "setting": "[1]", "result": "> 25000", "unit": "nM"},
      {"measurement": "IC50", "setting": "[2]", "result": 500, "unit": "nM"},
      {"measurement": "inhibition in vivo at 50 mg/kg", "setting": "[3]", "result": 65, "unit": "%"},
      {"measurement": "inhibition in vivo at 50 mg/kg", "setting": "[4]", "result": 43, "unit": "%"},
      {"measurement": "inhibition", "setting": "[5]", "result": 21, "unit": "%"},
      {"measurement": "inhibition", "setting": "[6]", "result": 29, "unit": "%"}
    ]},
    {"smiles": "CSc1ncc(-c2ccc(S(C)(=O)=O)cc2)n1-c1ccc(Cl)cc1", "values": [
      {"measurement": "IC50", "setting": "[1]", "result": "> 25000", "unit": "nM"},
      {"measurement": "IC50", "setting": "[2]", "result": 470, "unit": "nM"},
      {"measurement": "inhibition in vivo at 50 mg/kg", "setting": "[3]", "result": 59.5, "unit": "%"},
      {"measurement": "inhibition in vivo at 50 mg/kg", "setting": "[4]", "result": 42.7, "unit": "%"}
    ]}
  ]
}
